# Laboratory results from PMC10051798, “Thiosemicarbazide Derivatives Targeting Human TopoIIα and IDO-1 as Small-Molecule Drug Candidates for Breast Cancer Treatment” (International Journal of Molecular Sciences, 2023).
# What was measured:
# MCF-7 cells [1] = experiment: Cell cycle analysis (PI flow cytometry), MCF-7; type: cell-based, human; settings: 24 h
# Experimental: Cell cycle analyses of MCF-7 and MDA-MB-231 cells treated with compounds 1–3 and etoposide for 24 h were performed using a FACSCanto II flow cytometer (BD Bioscences Systems, San Diego, CA, USA). After incubation, breast cancer cells were trypsinized and fixed with cold ethanol (70%) and stored overnight at −20 °C. After removing ethanol, the cells were washed three times with PBS, treated with 50 μg/mL of DNase-free RNase A Solution (Promega, Madison, WI, USA) and stained with 100 μg/mL of PI. The results of measurements were analyzed using FCS Express 7 software (De Novo Software, Pasadena, CA, USA).
# [2] = biological target: T1, MDR1 (p-glycoprotein) in MCF-7 cells (Homo sapiens, UniProt P08183); experiment: MDR transporter activity assay, MDR1 in MCF-7; type: cell-based; settings: MCF-7, 10 µg/mL, 24 h
# T1 construct: endogenous in cells; host or cells: MCF-7 and MDA-MB-231 cells
# T1 sequence (P08183 whole entry): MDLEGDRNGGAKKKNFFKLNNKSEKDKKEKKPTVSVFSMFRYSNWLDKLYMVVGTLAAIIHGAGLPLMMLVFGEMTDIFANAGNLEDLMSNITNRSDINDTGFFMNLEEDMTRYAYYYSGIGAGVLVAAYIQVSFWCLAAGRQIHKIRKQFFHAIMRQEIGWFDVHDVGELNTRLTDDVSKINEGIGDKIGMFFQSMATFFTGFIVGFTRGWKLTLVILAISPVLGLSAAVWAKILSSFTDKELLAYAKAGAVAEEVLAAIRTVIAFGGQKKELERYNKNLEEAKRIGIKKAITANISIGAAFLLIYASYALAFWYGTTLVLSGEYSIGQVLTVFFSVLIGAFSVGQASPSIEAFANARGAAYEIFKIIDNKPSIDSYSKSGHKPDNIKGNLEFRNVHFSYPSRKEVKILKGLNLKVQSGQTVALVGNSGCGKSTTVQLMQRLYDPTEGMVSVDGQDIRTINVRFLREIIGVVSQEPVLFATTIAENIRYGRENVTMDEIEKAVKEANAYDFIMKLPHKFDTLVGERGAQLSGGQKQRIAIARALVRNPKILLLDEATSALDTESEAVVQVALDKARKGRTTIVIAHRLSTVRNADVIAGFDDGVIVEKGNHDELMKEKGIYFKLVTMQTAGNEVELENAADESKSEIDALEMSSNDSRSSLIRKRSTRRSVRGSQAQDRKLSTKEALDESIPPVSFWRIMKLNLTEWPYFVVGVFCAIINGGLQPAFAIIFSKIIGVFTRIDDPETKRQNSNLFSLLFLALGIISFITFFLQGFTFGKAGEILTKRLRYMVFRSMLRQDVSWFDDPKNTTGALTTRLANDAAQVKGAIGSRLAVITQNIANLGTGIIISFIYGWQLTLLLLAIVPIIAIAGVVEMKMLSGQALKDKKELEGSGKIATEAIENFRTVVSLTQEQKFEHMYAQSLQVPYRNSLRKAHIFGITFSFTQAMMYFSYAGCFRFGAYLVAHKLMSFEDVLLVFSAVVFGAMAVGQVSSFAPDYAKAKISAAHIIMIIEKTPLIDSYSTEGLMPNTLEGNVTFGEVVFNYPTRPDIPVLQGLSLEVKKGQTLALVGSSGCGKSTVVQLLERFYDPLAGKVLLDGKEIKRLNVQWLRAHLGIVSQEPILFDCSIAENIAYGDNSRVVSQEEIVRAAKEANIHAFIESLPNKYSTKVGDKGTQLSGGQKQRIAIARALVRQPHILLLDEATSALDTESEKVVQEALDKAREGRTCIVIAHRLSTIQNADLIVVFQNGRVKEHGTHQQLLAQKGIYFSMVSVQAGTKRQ
# Experimental: (§1) An MDR Assay kit (Abcam, Cambridge, UK) was used following the manufacturer’s instructions. MCF-7 and MDA-MB-231 cells were incubated with compounds 1–3 (10 μg/mL and 20 μg/mL). After 24 h of incubation, the test cells were washed twice with 5 mL of PBS by centrifugation at 1200 rpm for 10 min. The supernatants were discarded and the cells were counted using a Scepter 3.0 handheld automated cell counter (Milipore, Burlington, MA, USA). Then, each of the tested samples was divided into three parts and analyzed. Tomeasure the activity of MDR1, MRP1 and BCRP (tubes 1–12), 5 μL of verapamil (MDR1 inhibitor) was added into tubes 1–3, 5 μL of MK-571 (MRP1 inhibitor) was added into tubes 4–6, 5 μL of noviobiocin (BCRP inhibitor) was added into tubes 7–9 and 125 μL DMEM with 1 μL of DMSO was added into tubes 10–12. Then, the samples were incubated at 37 °C for five minutes. After this time, 125 μL of Efflux Green Detection Reagent was added into tubes 1–12 and the samples were incubated for 30 min at 37 °C. After 25 min of incubation, 5 μL of PI was added to each tube. Thereafter, the samples were centrifuged for 10 min at 1200 rpm. The supernatants were discarded and the cells were resuspended in 500 μL of PBS and run on the flow cytometer immediately. Measurements were conducted on a BD FACSCanto II flow cytometer using FACSDiva software (version 6.1.3, BD Biosciences, San Diego, CA, USA). […]
# BCRP in MCF-7 cells = biological target: T2, BCRP in MCF-7 cells (Homo sapiens, UniProt Q9UNQ0); experiment: MDR transporter activity assay, BCRP in MCF-7; type: cell-based; settings: MCF-7, 10 µg/mL, 24 h
# T2 construct: endogenous in cells; host or cells: MCF-7 and MDA-MB-231 cells
# T2 sequence (Q9UNQ0 1-655): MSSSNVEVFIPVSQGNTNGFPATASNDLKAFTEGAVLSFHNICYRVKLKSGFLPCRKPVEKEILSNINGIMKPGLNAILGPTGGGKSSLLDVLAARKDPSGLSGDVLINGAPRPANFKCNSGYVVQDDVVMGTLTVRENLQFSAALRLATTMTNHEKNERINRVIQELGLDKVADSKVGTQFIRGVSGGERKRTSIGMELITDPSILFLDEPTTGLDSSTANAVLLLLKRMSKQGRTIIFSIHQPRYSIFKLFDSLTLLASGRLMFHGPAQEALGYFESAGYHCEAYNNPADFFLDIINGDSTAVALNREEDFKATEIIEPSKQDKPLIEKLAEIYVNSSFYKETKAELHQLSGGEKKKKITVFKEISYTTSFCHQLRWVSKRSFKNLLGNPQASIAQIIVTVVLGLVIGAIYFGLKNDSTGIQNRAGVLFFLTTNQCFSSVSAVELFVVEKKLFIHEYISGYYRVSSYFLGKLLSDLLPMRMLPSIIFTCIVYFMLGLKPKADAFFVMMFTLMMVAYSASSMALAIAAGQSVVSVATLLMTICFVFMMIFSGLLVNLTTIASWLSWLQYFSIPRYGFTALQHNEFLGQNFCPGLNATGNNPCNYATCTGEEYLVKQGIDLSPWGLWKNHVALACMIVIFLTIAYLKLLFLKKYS
# Experimental: as §1
# [3] = biological target: T3, MDR1 (p-glycoprotein) in MDA-MB-231 cells (Homo sapiens, UniProt P08183); experiment: MDR transporter activity assay, MDR1 in MDA-MB-231; type: cell-based; settings: 24 h
# T3 construct: endogenous in cells; host or cells: MCF-7 and MDA-MB-231 cells
# T3 sequence (P08183 whole entry): as the sequence (P08183 whole entry) above
# Experimental: (§2) An MDR Assay kit (Abcam, Cambridge, UK) was used following the manufacturer’s instructions. MCF-7 and MDA-MB-231 cells were incubated with compounds 1–3 (10 μg/mL and 20 μg/mL). After 24 h of incubation, the test cells were washed twice with 5 mL of PBS by centrifugation at 1200 rpm for 10 min. The supernatants were discarded and the cells were counted using a Scepter 3.0 handheld automated cell counter (Milipore, Burlington, MA, USA). Then, each of the tested samples was divided into three parts and analyzed. Tomeasure the activity of MDR1, MRP1 and BCRP (tubes 1–12), 5 μL of verapamil (MDR1 inhibitor) was added into tubes 1–3, 5 μL of MK-571 (MRP1 inhibitor) was added into tubes 4–6, 5 μL of noviobiocin (BCRP inhibitor) was added into tubes 7–9 and 125 μL DMEM with 1 μL of DMSO was added into tubes 10–12. Then, the samples were incubated at 37 °C for five minutes. After this time, 125 μL of Efflux Green Detection Reagent was added into tubes 1–12 and the samples were incubated for 30 min at 37 °C. After 25 min of incubation, 5 μL of PI was added to each tube. Thereafter, the samples were centrifuged for 10 min at 1200 rpm. The supernatants were discarded and the cells were resuspended in 500 μL of PBS and run on the flow cytometer immediately. Measurements were conducted on a BD FACSCanto II flow cytometer using FACSDiva software (version 6.1.3, BD Biosciences, San Diego, CA, USA). […] The calculations followed these formulas:MAFMDR1= 100 × (FMDR1 − F0)/FMDR1 MAFMRP= 100 × (FMRP − F0)/FMRP MAFBCRP= 100 × (FBCRP − F0)/FBCRP
# (§3) • FMDR—MFI with MDR1 inhibitor (verapamil) • FMRP—MFI with MRP inhibitor (MK-571) • FBCRP—MFI with BCRP inhibitor (novobiocin) • F0—MFI without inhibitor
# (§4) The theoretical range of the MAF values is between 0 and 100.
# [4] = system: MRP1/2 in MDA-MB-231 cells; experiment: MDR transporter activity assay, MRP in MDA-MB-231; type: cell-based, human; settings: 24 h
# Experimental: as §2, §3, §4
# BCRP in MDA-MB-231 cells = biological target: T4, BCRP in MDA-MB-231 cells (Homo sapiens, UniProt Q9UNQ0); experiment: MDR transporter activity assay, BCRP in MDA-MB-231; type: cell-based; settings: 24 h
# T4 construct: endogenous in cells; host or cells: MCF-7 and MDA-MB-231 cells
# T4 sequence (Q9UNQ0 1-655): T2 sequence (Q9UNQ0 1-655)
# Experimental: as §2, §3, §4
# MCF-7 cells [5] = system: MCF-7 cells; design: method as in PMID 36345785; settings: MTT; cited from earlier work
# MDA-MB-231 cells = system: MDA-MB-231 cells; design: method as in PMID 36345785; settings: MTT; cited from earlier work
Structure (SMILES),"cells in G2/M phase (MCF-7 cells [1]; MCF-7, 20 µg/mL) [%]","cells in S phase (MCF-7 cells [1]; MCF-7, 20 µg/mL) [%]",MAF MDR1 (multidrug resistance activity factor) [2],MAF BCRP (BCRP in MCF-7 cells),"MAF MDR1 ([3]; MDA-MB-231, 10 µg/mL)","MAF MDR1 ([3]; MDA-MB-231, 20 µg/mL)","MAF MRP ([4]; MDA-MB-231, 10 µg/mL)","MAF MRP ([4]; MDA-MB-231, 20 µg/mL)","MAF BCRP (BCRP in MDA-MB-231 cells; MDA-MB-231, 10 µg/mL)","MAF BCRP (BCRP in MDA-MB-231 cells; MDA-MB-231, 20 µg/mL)",IC50 (MCF-7 cells [5]) [µM],IC50 MCF-7 (MCF-7 cells [5]) [µg/mL],IC50 (MDA-MB-231 cells) [µM],IC50 MDA-MB-231 (MDA-MB-231 cells) [µg/mL],"cells in G2/M phase (MCF-7 cells [1]; MCF-7, 10 µg/mL) [%]"
O=C(Cc1cccc2ccccc12)NNC(=S)Nc1ccc(/N=N/c2ccccc2)cc1 [Compound 2],32.2,40.7,9.1,15.4,13.3,11.1,7.0,1.8,4.9,1.4,20.9 ± 0.59,9.18 ± 0.26,17.4 ± 0.93,7.64 ± 0.41,–
O=C(NNC(=S)Nc1ccc(/N=N/c2ccccc2)cc1)c1ccccc1[N+](=O)[O-] [Compound 3],–,49.1,5.7,7.0,–,< 20,–,< 20,–,< 20,18.2 ± 1.36,7.67 ± 0.57,24.9 ± 1.74,10.47 ± 0.73,35.3
